What is called IC50 is the concentration that inhibits the measured activity by half. The low end stands for higher potency, the high end for lower potency.

The text below walks through data of US11814445B2, “Cyclic polypeptides for PCSK9 inhibition” (Ra Pharmaceuticals, Inc., priority 2018, dated 2023).

Numbered stars: 1 amine (or outer) side, 2 acyl side, 3 side chain; on linkers, the order of the positions; unused ones are H or OH. Bridge positions count the residues as written; N and C are the ends. Square brackets hold non-standard residues; d marks the D form. Peptide text beside a SMILES is read from it. ξ: configuration not given here. Trp(5-F) = N[C@@H](Cc1c[nH]c2ccc(F)cc12)C(=O)O; X8 = O=C(CCCCCSCc1cccc(CSCCN[*:1])c1)[*:2]; Phe(4-CN) = N#Cc1ccc(C[C@H](N)C(=O)O)cc1; Phe(4-Cl) = N[C@@H](Cc1ccc(Cl)cc1)C(=O)O; X1 = O=C(CCSCc1cccc(CSCCN[*:1])c1)[*:2]; 1Nal = N[C@@H](Cc1cccc2ccccc12)C(=O)O; 2Nal = N[C@@H](Cc1ccc2ccccc2c1)C(=O)O; Tiq1c(1S) = O=C(O)[C@H]1NCCc2ccccc21; mXylylene = c1cc(C[*:1])cc(C[*:2])c1; NMeF = CN[C@@H](Cc1ccccc1)C(=O)O; Tic = O=C(O)[C@@H]1Cc2ccccc2CN1; Tle = CC(C)(C)[C@H](N)C(=O)O; Pip = O=C(O)[C@@H]1CCCCN1; Nva = CCC[C@H](N)C(=O)O; Aib = CC(C)(N)C(=O)O; ξP = O=C(O)C1CCCN1; Mpa = O=C(O)CCS

human PCSK9 / human LDLR EGFa domain, sequence (Q8NBP7 153-692): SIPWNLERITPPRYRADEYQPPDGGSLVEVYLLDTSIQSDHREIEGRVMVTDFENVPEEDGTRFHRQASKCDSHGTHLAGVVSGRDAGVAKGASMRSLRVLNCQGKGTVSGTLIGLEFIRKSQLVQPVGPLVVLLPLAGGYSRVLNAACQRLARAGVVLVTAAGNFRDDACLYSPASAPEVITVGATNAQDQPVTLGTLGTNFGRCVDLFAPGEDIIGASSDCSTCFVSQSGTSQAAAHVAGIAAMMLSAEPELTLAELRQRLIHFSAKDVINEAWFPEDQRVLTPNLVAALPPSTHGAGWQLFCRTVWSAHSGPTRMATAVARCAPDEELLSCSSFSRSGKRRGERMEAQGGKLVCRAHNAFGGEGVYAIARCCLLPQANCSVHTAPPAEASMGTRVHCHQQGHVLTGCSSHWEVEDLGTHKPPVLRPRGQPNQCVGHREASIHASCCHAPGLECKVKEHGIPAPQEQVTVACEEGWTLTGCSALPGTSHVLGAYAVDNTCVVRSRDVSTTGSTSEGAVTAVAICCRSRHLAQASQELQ

The experiment addresses human PCSK9 / human LDLR EGFa domain (Homo sapiens, UniProt Q8NBP7). Kind of experiment: TR-FRET assay of inhibition of the PCSK9-LDLR protein-protein interaction. It is filed as binding. The settings on record: 20 nM human PCSK9, 20 nM human LDLR EGFa domain, 2 hours room temperature. On the procedure:
A time-resolved fluorescence resonance energy (TR-FRET) assay was used to measure inhibition of the PCSK9-LDLR protein-protein interaction. Briefly, 20 nM avitag-biotinylated human PCSK9 was incubated with 20 nM his-tagged human LDLR EGFa domain in the presence of 5 nM LANCE Ulight Streptavidin (Perkin Elmer) and 5 nM europium-Anti-6×His (Perkin Elmer) for 2 hours covered at room temperature in buffer containing 50 mM HEPES, 150 mM NaCl, 5 mM CaCl2), 0.01% BSA and 0.01% Surfactant P20. Compounds were tested in dose-response and concentrations giving half-maximal inhibition calculated using a 4-parameter fit equation.
`C[C@@H]1NC(=O)[C@@H]2CCCN2C(=O)[C@H](Cc2c[nH]c3ccc(F)cc23)NC(=O)[C@H](Cc2c[nH]c3ccc(F)cc23)NC(=O)[C@@H](C)NC(=O)[C@@H]2CCCN2C(=O)CCSCc2cccc(c2)CSCCNC(=O)[C@@H]2CCCN2C(=O)[C@H](Cc2cccc3ccccc23)NC1=O` [Compound 054] (cyclo([1Nal]P[X1]P[dA][Trp(5-F)][Trp(5-F)]PA)) showed an IC50 of 100 to 1000 nM.

On to `C[C@@H]1NC(=O)[C@@H]2CCCN2C(=O)[C@H](Cc2c[nH]c3ccc(F)cc23)NC(=O)[C@H](Cc2cccc3ccccc23)NC(=O)[C@@H](C)NC(=O)[C@@H]2CCCN2C(=O)CCSCc2cccc(c2)CSCCNC(=O)[C@@H]2CCCN2C(=O)[C@H](Cc2cccc3ccccc23)NC1=O` [Compound 055] (cyclo([1Nal]P[X1]P[dA][1Nal][Trp(5-F)]PA)), for which the IC50 is 1000 to 12100 nM. As to `C[C@@H]1NC(=O)[C@@H]2CCCN2C(=O)[C@H](Cc2c[nH]c3ccc(F)cc23)NC(=O)[C@H](Cc2c[nH]c3ccc(F)cc23)NC(=O)[C@@H](C)NC(=O)[C@@H]2CCCN2C(=O)CCSCc2cccc(c2)CSCCNC(=O)[C@@H]2CCCN2C(=O)[C@H](Cc2ccccc2)NC1=O` [Compound 057] (cyclo(AFP[X1]P[dA][Trp(5-F)][Trp(5-F)]P)), the half-maximal inhibitory concentration (IC50) lay within 100 to 1000 nM. The same measure for `C[C@@H]1NC(=O)CCSCc2cccc(c2)CSCCNC(=O)[C@@H]2CCCN2C(=O)[C@H](Cc2ccc(O)cc2)NC(=O)[C@H](C)NC(=O)[C@@H]2CCCN2C(=O)[C@H](Cc2c[nH]c3ccc(F)cc23)NC(=O)[C@H](Cc2c[nH]c3ccc(F)cc23)NC(=O)[C@@H](C)NC1=O` [Compound 058] (cyclo(AYP[X1]A[dA][Trp(5-F)][Trp(5-F)]P)): 21000 to 50000 nM; for `C[C@@H]1NC(=O)CCSCc2cccc(c2)CSCCNC(=O)[C@@H]2CCCN2C(=O)[C@H](Cc2cccc3ccccc23)NC(=O)[C@H](C)NC(=O)[C@@H]2CCCN2C(=O)[C@H](Cc2c[nH]c3ccc(F)cc23)NC(=O)[C@H](Cc2c[nH]c3ccc(F)cc23)NC(=O)[C@@H](C)NC1=O` [Compound 065] (cyclo([1Nal]P[X1]A[dA][Trp(5-F)][Trp(5-F)]PA)): 21000 to 50000 nM. Under `C[C@@H]1NC(=O)CCSCc2cccc(c2)CSCCNC(=O)[C@@H]2CCCN2C(=O)[C@H](Cc2ccccc2)N(C)C(=O)[C@H](C)NC(=O)[C@@H]2CCCN2C(=O)[C@H](Cc2c[nH]c3ccc(F)cc23)NC(=O)[C@H](Cc2cccc3ccccc23)NC(=O)[C@@H](C)NC1=O` [Compound 067] (cyclo([1Nal][Trp(5-F)]PA[NMeF]P[X1]A[dA])) stands 1000 to 12100 nM; under `C[C@@H]1NC(=O)CCSCc2cccc(c2)CSCCNC(=O)[C@@H]2CCCN2C(=O)[C@H](Cc2ccc3ccccc3c2)NC(=O)[C@H](C)NC(=O)[C@@H]2CCCN2C(=O)[C@H](Cc2c[nH]c3ccc(F)cc23)NC(=O)[C@H](Cc2cccc3ccccc23)NC(=O)[C@@H](C)NC1=O` [Compound 079] (cyclo([1Nal][Trp(5-F)]PA[2Nal]P[X1]A[dA])), 100 to 1000 nM; under `C[C@@H]1NC(=O)CCSCc2cccc(c2)CSCCNC(=O)[C@@H]2CCCN2C(=O)[C@H](Cc2cccc3ccccc23)NC(=O)[C@H](C)NC(=O)[C@@H]2CCCN2C(=O)[C@H](Cc2c[nH]c3ccc(F)cc23)NC(=O)[C@H](Cc2cccc3ccccc23)NC(=O)[C@@H](C)NC1=O` [Compound 080] (cyclo([1Nal]P[X1]A[dA][1Nal][Trp(5-F)]PA)), 1000 to 12100 nM.

Take `C[C@@H]1NC(=O)CCSCc2cccc(c2)CSC[C@@H](C(N)=O)NC(=O)[C@@H]2CCCN2C(=O)[C@H](Cc2ccc(C#N)cc2)NC(=O)[C@H](C)NC(=O)[C@@H]2CCCN2C(=O)[C@H](Cc2c[nH]c3ccc(F)cc23)NC(=O)[C@H](Cc2c[nH]c3ccc(F)cc23)NC(=O)[C@@H](C)NC1=O` [Compound 081] ([Mpa]A[dA][Trp(5-F)][Trp(5-F)]PA[Phe(4-CN)]PC-NH2; linker 1-10 via mXylylene): the IC50 lay within 1000 to 12100 nM. Take `C[C@@H]1NC(=O)CCSCc2cccc(c2)CSC[C@@H](C(N)=O)NC(=O)[C@@H]2CCCN2C(=O)[C@H](Cc2ccc(Cl)cc2)NC(=O)[C@H](C)NC(=O)[C@@H]2CCCN2C(=O)[C@H](Cc2c[nH]c3ccc(F)cc23)NC(=O)[C@H](Cc2c[nH]c3ccc(F)cc23)NC(=O)[C@@H](C)NC1=O` [Compound 083] ([Mpa]A[dA][Trp(5-F)][Trp(5-F)]PA[Phe(4-Cl)]PC-NH2; linker 1-10 via mXylylene): the half-inhibitory concentration (IC50) fell in the range of 21000 to 50000 nM.

Compound `C[C@@H]1NC(=O)CCSCc2cccc(c2)CSCCNC(=O)[C@@H]2CCCN2C(=O)[C@H](Cc2ccccc2)N(C)C(=O)[C@H](C)NC(=O)[C@@H]2CCCCN2C(=O)[C@H](Cc2c[nH]c3ccc(F)cc23)NC(=O)[C@H](Cc2c[nH]c3ccc(F)cc23)NC(=O)[C@@H](C)NC1=O` [Compound 088] (cyclo(A[NMeF]P[X1]A[dA][Trp(5-F)][Trp(5-F)][Pip])) registered an IC50 of 21000 to 50000 nM. Under `C[C@@H]1NC(=O)CCSCc2cccc(c2)CSCCNC(=O)[C@@H]2CCCN2C(=O)[C@H](Cc2ccc(O)cc2)NC(=O)[C@H](C)NC(=O)[C@@H]2Cc3ccccc3CN2C(=O)[C@H](Cc2c[nH]c3ccc(F)cc23)NC(=O)[C@H](Cc2c[nH]c3ccc(F)cc23)NC(=O)[C@@H](C)NC1=O` [Compound 091] (cyclo(AYP[X1]A[dA][Trp(5-F)][Trp(5-F)][Tic])) stands 100 to 1000 nM; under `C[C@@H]1NC(=O)CCSCc2cccc(c2)CSCCNC(=O)[C@@H]2CCCN2C(=O)[C@H](Cc2ccc(O)cc2)NC(=O)[C@H](C)NC(=O)[C@@H]2c3ccccc3CCN2C(=O)[C@H](Cc2c[nH]c3ccc(F)cc23)NC(=O)[C@H](Cc2c[nH]c3ccccc23)NC(=O)[C@@H](C)NC1=O` [Compound 092] (cyclo(AYP[X1]A[dA]W[Trp(5-F)][Tiq1c(1S)])), 21000 to 50000 nM; under `CCC[C@@H]1NC(=O)CCSCc2cccc(c2)CSCCNC(=O)[C@@H]2CCCN2C(=O)[C@H](Cc2ccc(O)cc2)NC(=O)[C@H](C)NC(=O)[C@@H]2CCCN2C(=O)[C@H](Cc2c[nH]c3ccc(F)cc23)NC(=O)[C@H](Cc2c[nH]c3ccc(F)cc23)NC(=O)[C@@H](C)NC1=O` [Compound 093] (cyclo(AYP[X1][Nva][dA][Trp(5-F)][Trp(5-F)]P)), 1000 to 12100 nM. As to `C[C@@H]1NC(=O)[C@@H]2CCCN2C(=O)[C@H](Cc2c[nH]c3ccc(F)cc23)NC(=O)[C@H](Cc2c[nH]c3ccc(F)cc23)NC(=O)[C@@H](C)NC(=O)C(C)(C)NC(=O)CCSCc2cccc(c2)CSCCNC(=O)[C@@H]2CCCN2C(=O)[C@H](Cc2ccc(O)cc2)NC1=O` [Compound 094] (cyclo(AYP[X1][Aib][dA][Trp(5-F)][Trp(5-F)]P)), the IC50 fell in the range of 100 to 1000 nM. For `C[C@@H]1NC(=O)[C@@H]2CCCN2C(=O)[C@H](Cc2c[nH]c3ccc(F)cc23)NC(=O)[C@H](Cc2c[nH]c3ccc(F)cc23)NC(=O)[C@@H](C)NC(=O)[C@H](C(C)(C)C)NC(=O)CCSCc2cccc(c2)CSCCNC(=O)[C@@H]2CCCN2C(=O)[C@H](Cc2ccc(O)cc2)NC1=O` [Compound 095] (cyclo(AYP[X1][Tle][dA][Trp(5-F)][Trp(5-F)]P)), the concentration for half-maximal inhibition (IC50) fell in the range of 100 to 1000 nM. `C[C@@H]1NC(=O)[C@@H]2CCCN2C(=O)[C@H](Cc2c[nH]c3ccc(F)cc23)NC(=O)[C@H](Cc2c[nH]c3ccc(F)cc23)NC(=O)CNC(=O)CCCCCSCc2cccc(c2)CSCCNC(=O)C2CCCN2C(=O)[C@H](Cc2ccc(O)cc2)NC1=O` (some centres unmarked) [Compound 098] (cyclo(AY[ξP][X8]G[Trp(5-F)][Trp(5-F)]P)): the IC50 was 100 to 1000 nM.
